From publication PMC4210175 (Journal of Chemical Information and Modeling, 2014)

Biological target: T1, Mycobacterium thermoresistibile MycP1 (Mycolicibacterium thermoresistibile, UniProt G7CDQ2)
T1 sequence (G7CDQ2 19-443): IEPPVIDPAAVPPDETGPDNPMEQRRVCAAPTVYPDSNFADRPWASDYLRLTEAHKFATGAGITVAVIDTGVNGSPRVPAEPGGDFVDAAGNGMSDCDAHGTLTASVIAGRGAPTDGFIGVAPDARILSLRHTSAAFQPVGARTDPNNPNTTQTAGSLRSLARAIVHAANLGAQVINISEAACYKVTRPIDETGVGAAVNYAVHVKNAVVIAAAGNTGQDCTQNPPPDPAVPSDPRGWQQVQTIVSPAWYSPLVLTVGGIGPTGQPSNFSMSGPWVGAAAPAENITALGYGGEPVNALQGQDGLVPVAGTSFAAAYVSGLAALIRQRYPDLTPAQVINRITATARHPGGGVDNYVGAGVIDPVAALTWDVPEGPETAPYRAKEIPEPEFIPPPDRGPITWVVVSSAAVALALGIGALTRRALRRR
Assay: In vitro quenched fluorescent peptide assay of MycP1 inhibitors
Assay type: biochemical
Details: for inhibition at 150 µM: read-out: % inhibition at 150 μM

IC50 | inhibition at 150 µM | Compound
85.6 µM | 79.1% | N=C(N)c1ccc(/C=C/c2ccc(C(=N)N)cc2O)cc1 [compound 11, Hydroxystilbamidine]
 | 58% | N=C(N)c1ccc(/N=N/Nc2ccc(C(=N)N)cc2)cc1 [compound 12, Diminazene]
 | 80.1% | CC(=O)Nc1ccc(/C=N/NC(N)=S)cc1 [compound 13, Thiacetazone]
